Laboratory results as given in paper PMC10844532, “The in vivo study on antioxidant activity of wendan decoction in treating hyperlipidemia: a pharmacokinetic-pharmacodynamic (PK-PD) model” (Frontiers in Pharmacology, 2024).
Where two headings read alike, the source gives them in different places.

What was measured:
[1] = Plasma pharmacokinetics of 10 WDD components after gavage of WDD (LC-MS/MS, Phoenix NCA and compartment model); type: in vivo, SD rats; design: Tmax: unit: h; settings: for AUC(0-t) / Cmax / half-life / Tmax / t1/2: hyperlipidemia rat plasma, non-compartment, n = 6; for Model (optimal PK compartment model): chosen by AIC, Phoenix Model module, rats given WDD
Experimental: LPO values of all the rats were assessed prior to therapy, and utilized as the baseline. […] Thermo Scientific Hypersil C18 analytical column (particle size: 1.9 µm, length: 100 mm, and diameter: 2.1 mm) was employed. Column operational conditions were like so, column temperature: 30°C, autosampler temperature: 4°C, whereas the flow rate: 0.3 mL/min. Injection volume: 3 μL, and mobile phase: aqueous solution containing 0.1% formic acid aqueous solution (A) and acetonitrile (B). […] Electrospray ion source (ESI) was used for mass spectrometry detection and analysis, both in positive and negative ion patterns. Nitrogen was kept as both of the auxiliary and sheath gas. The capillary temperature was 345°C, the atomizer temperature was 350°C, and the electrospray voltage was 3800 V. The mass spectrometry data for the 10 compounds and the internal standard (IS) are shown in Table 1. After accurately measuring 100 μL of plasma, 10 μL of the QC solution or the IS solution was supplemented, and the blend was vortexed for 30 s. Afterward, 300 μL of acetonitrile (as protein precipitant) was added, vortexed for 1 min, and then centrifuged (10 min at 12000 r/min). Finally, the supernatant was taken and stored for testing. […] The dose, plasma concentration and time after administration were imported into the NCA (Noncompartmental Analysis) module of Phoenix 8.1 to obtain the pharmacokinetic parameters. The Phoenix Model module of Phoenix software was used to establish the atrioventricular model of the drug. Akaike Information Criterion (AIC) rules were used to calculate the optimal PK model.

HDL = system: HDL; design: method as in Eu et al., 2010; settings: ref Eu et al., 2010; cited from earlier work
hyperlipidemia hamsters = system: hyperlipidemia hamsters; design: method as in Shi et al., 2023; settings: compared with the control group ref Shi et al., 2023; cited from earlier work
[2] = system: experimental hyperlipidemia rat models; design: method as in Kumar et al., 2020; settings: experimental hyperlipidemia rat models ref Kumar et al., 2020; cited from earlier work
hyperlipidemia mice = system: hyperlipidemia mice; design: method as in Yu et al., 2022; settings: hyperlipidemia mice ref Yu et al., 2022; cited from earlier work
plasma lipids = system: plasma lipids; design: method as in Sahebkar, 2017; settings: randomized controlled trials ref Sahebkar, 2017, cited from earlier work
[3] = Sprague-Dawley, po, HTG: WDD 6.6 g/100 g by gavage
[4] = Sprague-Dawley, po, LTG: WDD 2.2 g/100 g by gavage
[5] = Sprague-Dawley, rat, plasma, po, 2.2 g/100 g, LTG: WDD 2.2 g/100 g by gavage
[6] = Sprague-Dawley, rat, plasma, po, 2.2 g/100 g, LTG: WDD 2.2 g/100 g by gavage, read-out: Tmax
[7] = Sprague-Dawley, rat, plasma, po, 6.6 g/100 g, HTG: WDD 6.6 g/100 g by gavage
[8] = Sprague-Dawley, rat, plasma, po, 6.6 g/100 g, HTG: WDD 6.6 g/100 g by gavage, read-out: Tmax

CC1(C)[C@@H](O)CC[C@]2(C)[C@H]3C(=O)C=C4[C@@H]5C[C@@](C)(C(=O)O)CC[C@]5(C)CC[C@@]4(C)[C@]3(C)CC[C@@H]12 [Glycyrrhetinic acid]
AUC(0-t) [1, 3]: 10200 ± 298 ng·h/mL
Cmax [1, 3]: 3280 ± 475 ng/mL
AUC(0-t) [1, 4]: 8180 ± 500 ng·h/mL
Cmax [1, 4]: 2940 ± 220 ng/mL
half-life [1, 5]: 2.3 ± 0.16 h
Tmax [1, 6]: 0.75 h
half-life [1, 7]: 6.02 ± 0.92 h
Tmax [1, 8]: 0.54 ± 0.21 h
bioavailability (from largest AUC in rat plasma) ([1]; both doses of WDD): good bioavailability

CC1(C)[C@@H](O[C@H]2O[C@H](C(=O)O)[C@@H](O)[C@H](O)[C@H]2O[C@@H]2O[C@H](C(=O)O)[C@@H](O)[C@H](O)[C@H]2O)CC[C@]2(C)[C@H]3C(=O)C=C4[C@@H]5C[C@@](C)(C(=O)O)CC[C@]5(C)CC[C@@]4(C)[C@]3(C)CC[C@@H]12 [Glycyrrhizic acid]
HDL (HDL): can increase HDL
AUC(0-t) [1, 3]: 128 ± 5.67 ng·h/mL
Cmax [1, 3]: 45.1 ± 2.3 ng/mL
AUC(0-t) [1, 4]: 104 ± 5.97 ng·h/mL
Cmax [1, 4]: 20.6 ± 2.16 ng/mL
half-life [1, 5]: 10.8 ± 3.88 h
Tmax [1, 6]: 1.5 h
half-life [1, 7]: 15.5 ± 7.44 h
Tmax [1, 8]: 0.25 h
Model (optimal PK compartment model) [1]: One-Compartment Model

COc1ccc([C@@H]2CC(=O)c3c(O)cc(O)cc3O2)cc1O [Hesperetin]
body weight, obesity index, serum TC, TG, liver TC, TG and free fatty acid levels (hyperlipidemia hamsters): significantly decreased
Tmax ([1]; HTG: WDD 6.6 g/100 g by gavage): 0.67 ± 0.17 h
t1/2 ([1]; HTG: WDD 6.6 g/100 g by gavage): 6.24 ± 0.36 h
Tmax ([1]; HTG: WDD 6.6 g/100 g by gavage, listed as hesperetin): 0.25 h
AUC(0-t) [1, 3]: 3890 ± 147 ng·h/mL
Cmax [1, 3]: 607 ± 130 ng/mL
AUC(0-t) [1, 4]: 1030 ± 23.8 ng·h/mL
Cmax [1, 4]: 223 ± 8.19 ng/mL
half-life [1, 5]: 5.88 ± 3.39 h
Tmax [1, 6]: 1.42 ± 0.92 h
half-life [1, 7]: 3.21 h
Model (optimal PK compartment model) [1]: One-Compartment Model

COc1ccc([C@@H]2CC(=O)c3c(O)cc(O[C@@H]4O[C@H](CO[C@@H]5O[C@@H](C)[C@H](O)[C@@H](O)[C@H]5O)[C@@H](O)[C@H](O)[C@H]4O)cc3O2)cc1O [Hesperidin]
altered redox homeostasis [2]: can reduce altered redox homeostasis
AUC(0-t) [1, 3]: 439 ± 13.3 ng·h/mL
Cmax [1, 3]: 194 ± 24.3 ng/mL
AUC(0-t) [1, 4]: 172 ± 3.26 ng·h/mL
Cmax [1, 4]: 34.6 ± 3.22 ng/mL
half-life [1, 5]: 12.1 ± 5.52 h
Tmax [1, 6]: 0.67 ± 0.42 h
half-life [1, 7]: 4.19 ± 0.17 h
Tmax [1, 8]: 0.75 h
Model (optimal PK compartment model) [1]: One-Compartment Model

O=C(/C=C/c1ccc(O)cc1)c1ccc(O)cc1O [Isoliquiritigenin]
Tmax ([1]; HTG: WDD 6.6 g/100 g by gavage): 0.79 ± 0.21 h
Tmax ([1]; HTG: WDD 6.6 g/100 g by gavage, listed as isoliquiritigenin): 0.25 h
AUC(0-t) [1, 3]: 54.9 ± 2.07 ng·h/mL
Cmax [1, 3]: 17.8 ± 3.31 ng/mL
AUC(0-t) [1, 4]: 48.5 ± 0.82 ng·h/mL
Cmax [1, 4]: 16.2 ± 2.35 ng/mL
half-life [1, 5]: 27.4 ± 4.66 h
Tmax [1, 6]: 0.5 h
half-life [1, 7]: 14.6 ± 9 h

O=C1C[C@@H](c2ccc(O)cc2)Oc2cc(O)cc(O)c21 [Naringenin]
AUC(0-t) [1, 3]: 595 ± 15.4 ng·h/mL
Cmax [1, 3]: 139 ± 10.6 ng/mL
AUC(0-t) [1, 4]: 587 ± 14.3 ng·h/mL
Cmax [1, 4]: 110 ± 6.8 ng/mL
half-life [1, 5]: 12.5 ± 4.08 h
Tmax [1, 6]: 0.75 h
half-life [1, 7]: 11.7 ± 1.94 h
Tmax [1, 8]: 0.75 h
Model (optimal PK compartment model) [1]: One-Compartment Model

C[C@@H]1O[C@@H](O[C@H]2[C@H](Oc3cc(O)c4c(c3)O[C@H](c3ccc(O)cc3)CC4=O)O[C@H](CO)[C@@H](O)[C@@H]2O)[C@H](O)[C@H](O)[C@H]1O [Naringin]
effect on reducing lipids and protecting liver (hyperlipidemia mice): strong effect on reducing lipids and protecting liver
AUC(0-t) [1, 3]: 713 ± 46.4 ng·h/mL
Cmax [1, 3]: 575 ± 17.6 ng/mL
AUC(0-t) [1, 4]: 210 ± 12.5 ng·h/mL
Cmax [1, 4]: 36.8 ± 4.99 ng/mL
half-life [1, 5]: 6.13 ± 0.94 h
Tmax [1, 6]: 0.54 ± 0.21 h
half-life [1, 7]: 5 ± 1.27 h
Tmax [1, 8]: 0.25 h
Model (optimal PK compartment model) [1]: Two-Compartment Model

O=c1c(O)c(-c2ccc(O)c(O)c2)oc2cc(O)cc(O)c12 [Quercetin]
triglycerides (plasma lipids; doses above 50 mg/day): significant reduction
effect on plasma lipids (plasma lipids; supplementation): does not have any clinically relevant effect
t1/2 ([1]; HTG: WDD 6.6 g/100 g by gavage): 7.75 ± 12.99 h
Tmax ([1]; LTG: WDD 2.2 g/100 g by gavage): 1.00 ± 0.00 h
AUC(0-t) [1, 3]: 370 ± 14.7 ng·h/mL
Cmax [1, 3]: 115 ± 4.83 ng/mL
AUC(0-t) [1, 4]: 212 ± 9.39 ng·h/mL
Cmax [1, 4]: 98.4 ± 8.03 ng/mL
half-life [1, 5]: 31.1 ± 41.4 h
Tmax [1, 8]: 0.75 h
Model (optimal PK compartment model) [1]: Two-Compartment Model

COc1ccc(-c2cc(=O)c3c(OC)c(OC)c(OC)c(OC)c3o2)cc1 [Tangeretin]
AUC(0-t) [1, 3]: 22.4 ± 0.89 ng·h/mL
Cmax [1, 3]: 25.9 ± 2.98 ng/mL
AUC(0-t) [1, 4]: 10.8 ± 0.32 ng·h/mL
Cmax [1, 4]: 6.8 ± 0.46 ng/mL
half-life [1, 5]: 8.83 ± 4.57 h
Tmax [1, 6]: 0.5 h
half-life [1, 7]: 3.21 ± 0.89 h
Tmax [1, 8]: 0.38 ± 0.13 h
Model (optimal PK compartment model) [1]: Two-Compartment Model

C[n+]1cccc(C(=O)[O-])c1 [Trigonelline]
AUC(0-t) [1, 3]: 6010 ± 96.4 ng·h/mL
Cmax [1, 3]: 537 ± 7.69 ng/mL
AUC(0-t) [1, 4]: 3560 ± 300 ng·h/mL
Cmax [1, 4]: 388 ± 25.8 ng/mL
half-life [1, 5]: 12.2 ± 1.65 h
Tmax [1, 6]: 1.5 h
half-life [1, 7]: 11.8 ± 1.81 h
Tmax [1, 8]: 2.67 ± 0.33 h
Model (optimal PK compartment model) [1]: Two-Compartment Model
